Laboratory results published in patent US11866752B2, “Cysteine polysulfidation and mitochondrial bioenergetics regulated by cysteinyl-tRNA synthetase” (Bio-Xcelerator, Inc., priority 2018, dated 2024).

Tests used:
EcCARS = target: T1, EcCARS (Escherichia coli, UniProt P21888); format: biochemical; details: for Persulfide generation by EcCARS with cysteine enantiomer as substrate: substrate enantioselectivity
T1 construct: His tag (inferred from nickel-NTA purification); made in house
Source text: The data are means ±s.d. […] Data represent means ±s.d.

mouse CARS1 = target: T2, mouse CARS1 (Mus musculus, UniProt Q9ER72); assay: CysSSH and CysSSSH biosynthesis by recombinant mouse CARS1
T2 sequence (Q9ER72 1-748 isoform Q9ER72-2): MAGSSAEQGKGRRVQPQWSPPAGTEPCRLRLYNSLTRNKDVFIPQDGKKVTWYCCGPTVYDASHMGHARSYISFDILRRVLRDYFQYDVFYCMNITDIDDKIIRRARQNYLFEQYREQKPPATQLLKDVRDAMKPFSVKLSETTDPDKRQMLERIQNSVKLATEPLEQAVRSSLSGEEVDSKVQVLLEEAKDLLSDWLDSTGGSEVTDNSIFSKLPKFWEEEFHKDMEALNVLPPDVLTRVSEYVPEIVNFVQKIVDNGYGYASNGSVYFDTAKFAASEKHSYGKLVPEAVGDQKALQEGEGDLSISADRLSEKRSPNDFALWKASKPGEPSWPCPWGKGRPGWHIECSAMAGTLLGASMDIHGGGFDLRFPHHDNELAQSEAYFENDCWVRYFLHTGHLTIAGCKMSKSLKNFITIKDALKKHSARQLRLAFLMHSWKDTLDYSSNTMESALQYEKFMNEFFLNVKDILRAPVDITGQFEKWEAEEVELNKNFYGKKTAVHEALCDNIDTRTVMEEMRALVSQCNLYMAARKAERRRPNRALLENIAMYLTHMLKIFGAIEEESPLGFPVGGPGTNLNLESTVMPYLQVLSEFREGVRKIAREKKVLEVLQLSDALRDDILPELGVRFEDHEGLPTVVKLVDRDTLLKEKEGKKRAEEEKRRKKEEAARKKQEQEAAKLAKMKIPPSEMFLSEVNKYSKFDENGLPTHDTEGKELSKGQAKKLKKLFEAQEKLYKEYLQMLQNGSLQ

human CARS2 = target: T3, human CARS2 (Homo sapiens, UniProt Q9HA77); assay: CysSSH and CysSSSH biosynthesis by recombinant human CARS2
T3 sequence (Q9HA77 1-564): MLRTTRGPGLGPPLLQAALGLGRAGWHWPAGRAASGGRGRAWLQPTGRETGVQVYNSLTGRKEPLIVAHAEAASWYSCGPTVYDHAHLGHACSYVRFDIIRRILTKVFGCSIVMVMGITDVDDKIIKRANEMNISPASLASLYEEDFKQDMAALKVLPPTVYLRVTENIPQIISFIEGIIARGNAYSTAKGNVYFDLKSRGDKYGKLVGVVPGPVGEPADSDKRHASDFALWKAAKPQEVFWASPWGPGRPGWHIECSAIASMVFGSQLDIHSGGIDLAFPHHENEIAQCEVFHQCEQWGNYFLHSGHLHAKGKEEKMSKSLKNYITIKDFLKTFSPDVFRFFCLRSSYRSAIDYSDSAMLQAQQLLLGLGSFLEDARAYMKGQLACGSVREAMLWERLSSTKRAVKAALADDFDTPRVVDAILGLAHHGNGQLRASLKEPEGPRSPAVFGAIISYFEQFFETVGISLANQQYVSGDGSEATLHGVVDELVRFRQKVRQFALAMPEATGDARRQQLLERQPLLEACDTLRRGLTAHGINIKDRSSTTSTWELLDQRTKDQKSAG

ADH5 = target: T4, ADH5 (Homo sapiens, UniProt P11766); assay: HPE-IAM labeling of ADH5 cysteine polysulfides, LC-ESI-MS/MS; details: treatment of ADH5
T4 construct: made in house; host or cells: Escherichia coli
Source text: Redox property of cysteine and protein polysulfides. CysSSHhas unique redox-active properties that distinguishes it from the cysteine (CysSH) thiol. […] Moreover, dialkylpolysulfides can also be nucleophilic and electrophile-mediated cleavage of S—S bonds is established28. The unique properties and reactivity of polysulfides allowed us to develop several analytical techniques aimed at determining endogenous production of LMW and protein-bound polysulfides (Supplementary FIG. 3). We first developed a convenient method for selective detection of polysulfidated proteins: the biotin-polyethylene glycol (PEG)-conjugated maleimide (biotin-PEG-MAL) labeling gel shift assay (PMSA; Supplementary FIG. 3a)15. […] We then used liquid chromatography-electrospray ionizationtandem mass spectrometry (LC-ESI-MS/MS) with 0-(4-hydroxyphenyl) ethyl iodoacetamide (HPE-IAM) as a trapping agent to identify and precisely quantify various hydropolysulfides, and also to verify the site specificity of polysulfidation as well as the number of sulfur atoms involved in proteins (Supplementary FIG. 5, and Supplementary Table 2). […]

[1] = tested on: mitochondrial ETC in HEK293T cells; assay: Effect of suppression of ETC on metabolic profiles of CysSSH; format: cell-based, human; details: HPE-IAM labeling LC-MS/MS
Procedure: Effect of suppression of ETC on metabolic profiles of CysSSH. The mito-chondrial ETC in HEK293T cells was inhibited either by a complex III inhibitor, antimycin A, or by elimination of mitochondrial DNA (mtDNA) induced by ethidium bromide. For the direct but partial ETC (complex III) inhibition, WT and CARS2 KO cells were treated with various concentrations of antimycin A for 1 h, followed by methanol extraction for measurement of CysSSH and its related sulfide derivatives by HPE-IAM labeling LC-ESI-MS/MS analysis as described earlier. […] The quantity of each sulfide produced from CARS2 in the cells was determined by subtracting the amount of each sulfide in CARS2 KO HEK293T cells from that in the WT cells, after quantification of each metabolite via HPE-IAM labeling LC-MS/MS analysis. Changes in the amounts of CysSSH (ACysSSH) and HS— (AHS-) induced by complex III inhibition by antimycin A or by mtDNA elimination in WT and CARS2 KO HEK293T cells were then calculated.

CSE = assay: Kinetic parameters of recombinant CSE with L-cystine as substrate; format: biochemical, rat and human

T1 sequence (P21888 whole entry): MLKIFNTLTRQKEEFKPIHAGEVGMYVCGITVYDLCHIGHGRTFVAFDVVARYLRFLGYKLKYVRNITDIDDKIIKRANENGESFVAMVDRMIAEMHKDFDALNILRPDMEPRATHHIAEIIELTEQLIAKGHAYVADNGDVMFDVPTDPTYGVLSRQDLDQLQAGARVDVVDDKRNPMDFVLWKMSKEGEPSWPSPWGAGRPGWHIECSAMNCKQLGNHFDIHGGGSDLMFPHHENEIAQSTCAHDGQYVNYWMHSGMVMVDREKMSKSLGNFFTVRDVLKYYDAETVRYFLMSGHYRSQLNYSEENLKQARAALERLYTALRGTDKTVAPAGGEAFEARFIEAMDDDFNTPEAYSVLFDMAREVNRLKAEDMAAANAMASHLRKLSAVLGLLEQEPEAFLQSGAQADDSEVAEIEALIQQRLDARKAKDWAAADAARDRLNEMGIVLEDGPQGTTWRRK
T4 sequence (P11766 whole entry, species assumed): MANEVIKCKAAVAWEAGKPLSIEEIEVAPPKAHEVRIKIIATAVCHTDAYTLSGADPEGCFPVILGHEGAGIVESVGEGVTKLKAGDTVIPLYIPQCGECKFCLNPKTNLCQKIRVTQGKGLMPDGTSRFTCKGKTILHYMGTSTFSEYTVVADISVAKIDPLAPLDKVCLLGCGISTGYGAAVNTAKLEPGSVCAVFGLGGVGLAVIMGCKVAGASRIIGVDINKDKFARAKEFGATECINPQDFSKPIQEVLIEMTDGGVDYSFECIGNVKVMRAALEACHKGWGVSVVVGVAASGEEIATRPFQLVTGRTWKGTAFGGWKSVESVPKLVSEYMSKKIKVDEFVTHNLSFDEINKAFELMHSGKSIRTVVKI

In the case of `Nc1ncnc2c1ncn2[C@@H]1O[C@H](COP(=O)(O)OP(=O)(O)OP(=O)(O)O)[C@@H](O)[C@H]1O` [ATP], the “Dependence of persulfide synthase activity of EcCARS on added factor” value (EcCARS) is reported as “but not on ATP”.

`Cc1ncc(COP(=O)(O)O)c(C=O)c1O` [pyridoxal phosphate] was tested, and the “Dependence of CysS-(S)n-H producing activity on PLP” value (mouse CARS1; mouse CARS1) was “depended on the presence of PLP”, the “Dependence of persulfide synthase activity of EcCARS on added factor” value (EcCARS) was “depended partly” and the “Dependence of CysS-(S)n-H producing activity on PLP” value (human CARS2; human CARS2) was “depended on the presence of PLP”. For the same molecule, the “Cysteine persulfide production in reaction mixture of cysteine and PLP alone” value (human CARS2; no enzyme, no >100 μM PLP) was “No appreciable cysteine persulfide production was detected”.

`CCN1C(=O)C=CC1=O` [N-ethylmaleimide] was tested, and the “HPE-IAM labeling of CysSH and CysSSH/SSSH of ADH5” value (ADH5) was “completely abrogated”.

For `N[C@H](CS)C(=O)O` [D-cysteine], the “Persulfide generation by EcCARS with cysteine enantiomer as substrate” value (EcCARS) was “but not D-cysteine demonstrated activity”.

`N[C@@H](CS)C(=O)O` [L-cysteine] was tested, and the “Persulfide generation by EcCARS with cysteine enantiomer as substrate” value (EcCARS) was “demonstrated activity”.

In the case of antimycin A, the “Change in CysSSH” value [1] is reported as “significant increase” and the “Change in HS- production” value [1] is reported as “reduction”.

B1: mouse CARS1: recombinant cytosolic cysteinyl-tRNA synthetase (protein, UniProt Q9ER72 2-831, looked up)
Cysteine--tRNA ligase, …: AGSSAEQAADYRSILSISDEAARVQALDQHLSTRSYIQGYSLSQADVDVFRQLSAPPADSRLFHVARWFRHIEALLGGPQGRDEPCRLQASKGRRVQPQWSPPAGTEPCRLRLYNSLTRNKDVFIPQDGKKVTWYCCGPTVYDASHMGHARSYISFDILRRVLRDYFQYDVFYCMNITDIDDKIIRRARQNYLFEQYREQKPPATQLLKDVRDAMKPFSVKLSETTDPDKRQMLERIQNSVKLATEPLEQAVRSSLSGEEVDSKVQVLLEEAKDLLSDWLDSTGGSEVTDNSIFSKLPKFWEEEFHKDMEALNVLPPDVLTRVSEYVPEIVNFVQKIVDNGYGYASNGSVYFDTAKFAASEKHSYGKLVPEAVGDQKALQEGEGDLSISADRLSEKRSPNDFALWKASKPGEPSWPCPWGKGRPGWHIECSAMAGTLLGASMDIHGGGFDLRFPHHDNELAQSEAYFENDCWVRYFLHTGHLTIAGCKMSKSLKNFITIKDALKKHSARQLRLAFLMHSWKDTLDYSSNTMESALQYEKFMNEFFLNVKDILRAPVDITGQFEKWEAEEVELNKNFYGKKTAVHEALCDNIDTRTVMEEMRALVSQCNLYMAARKAERRRPNRALLENIAMYLTHMLKIFGAIEEESPLGFPVGGPGTNLNLESTVMPYLQVLSEFREGVRKIAREKKVLEVLQLSDALRDDILPELGVRFEDHEGLPTVVKLVDRDTLLKEKEGKKRAEEEKRRKKEEAARKKQEQEAAKLAKMKIPPSEMFLSEVNKYSKFDENGLPTHDTEGKELSKGQAKKLKKLFEAQEKLYKEYLQMLQNGSLQ
For B1, the “CysS-(S)n-H producing activity” value (mouse CARS1; recombinant mouse CARS1) was “strong”.

B2: CSE: cystathionine γ-lyase (cystathionase), recombinant rat and human (protein, UniProt P32929 1-405, looked up)
Cystathionine gamma-lyase: MQEKDASSQGFLPHFQHFATQAIHVGQDPEQWTSRAVVPPISLSTTFKQGAPGQHSGFEYSRSGNPTRNCLEKAVAALDGAKYCLAFASGLAATVTITHLLKAGDQIICMDDVYGGTNRYFRQVASEFGLKISFVDCSKIKLLEAAITPETKLVWIETPTNPTQKVIDIEGCAHIVHKHGDIILVVDNTFMSPYFQRPLALGADISMYSATKYMNGHSDVVMGLVSVNCESLHNRLRFLQNSLGAVPSPIDCYLCNRGLKTLHVRMEKHFKNGMAVAQFLESNPWVEKVIYPGLPSHPQHELVKRQCTGCTGMVTFYIKGTLQHAEIFLKNLKLFTLAESLGGFESLAELPAIMTHASVLKNDRDVLGISDTLIRLSVGLEDEEDLLEDLDQALKAAHPPSGSHS
modifications: also rat
notes: cystathionine γ-lyase (cystathionase), recombinant rat and human
Molecule B2 has a Km (CSE) greater than 200 µM.
